IC50 data for 3 compounds are collected here from US8716281B2, “Pyrimidine compounds that inhibit anaplastic lymphoma kinase” (Amgen Inc., priority 2010, dated 2014).

Each structure is given as a SMILES string.

For this assay, the target named is T1, wild-type human ALK cytoplasmic domain (amino acids 1058-1620) (Homo sapiens, UniProt Q9UM73).
T1 construct: The cytoplasmic domain (amino acids 1058-1620) of wild-type human ALK; GST (N); made in house; host or cells: SF9 insect cells
The assay is described as follows: ALK Inhibition in Enzyme Assay (Lance TR-FRET). In kind it is biochemical. The settings on record: 2 nM enzyme, ATP at 40 μM (Km apparent), 90 minutes, mean of three replicates; read-out: ALK IC50. In short, it runs like this:
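Purified enzyme phosphorylated a biotinylated peptide substrate for 90 minutes at room temperature. Reactions were stopped with 20 mM EDTA in 50 mM Tris (pH 7.5), 100 mM NaCl, 0.05% BSA, 0.1% Tween-20. Phosphopeptide was detected by TR-FRET with SA-APC and Eu-W1024 anti-phosphotyrosine antibody PT66, excitation 320 nm.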

T1 sequence (Q9UM73 1058-1620): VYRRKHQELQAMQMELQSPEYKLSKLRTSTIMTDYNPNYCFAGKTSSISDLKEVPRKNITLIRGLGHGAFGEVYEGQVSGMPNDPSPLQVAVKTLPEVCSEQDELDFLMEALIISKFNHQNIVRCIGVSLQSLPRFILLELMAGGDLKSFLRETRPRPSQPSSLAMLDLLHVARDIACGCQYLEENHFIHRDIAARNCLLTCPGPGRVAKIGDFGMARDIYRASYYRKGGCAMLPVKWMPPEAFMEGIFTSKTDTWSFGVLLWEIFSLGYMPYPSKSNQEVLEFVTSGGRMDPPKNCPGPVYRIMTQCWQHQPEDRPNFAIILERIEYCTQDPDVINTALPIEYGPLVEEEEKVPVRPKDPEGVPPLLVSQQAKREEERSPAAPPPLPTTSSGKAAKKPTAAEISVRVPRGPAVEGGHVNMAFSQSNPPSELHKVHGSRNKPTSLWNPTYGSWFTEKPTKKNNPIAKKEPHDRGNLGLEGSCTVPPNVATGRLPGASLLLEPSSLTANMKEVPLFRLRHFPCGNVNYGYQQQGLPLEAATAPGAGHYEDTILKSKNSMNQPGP

The IC50 is the concentration at which inhibition is half-maximal. As to `Cc1ccc(CNC(=O)[C@H]2CCCN(c3ccnc(Nc4ccc(-n5cncn5)cc4)n3)C2)cc1` [Example 191, (S)-1-(2-(4-(1H-1,2,4-triazol-1-yl)phenylamino)pyrimidin-4-yl)-N-(4-methylbenzyl)piperidine-3-carboxamide], the concentration for half-maximal inhibition (IC50) is 1000 to 5000 nM.
The figure for `CCOc1ccc(Nc2nccc(N3CCC[C@H](C(=O)NCc4ccc(C)cc4)C3)n2)cc1` [Example 192, (S)-1-(2-(4-ethoxyphenylamino)pyrimidin-4-yl)-N-(4-methylbenzyl)piperidine-3-carboxamide] is 1000 to 5000 nM.
The same measure for `Cc1ccc(CNC(=O)[C@H]2CCCN(c3ccnc(Nc4ccc(N5CCNC(=O)C5)nc4)n3)C2)cc1` [Example 193, (S)-N-(4-methylbenzyl)-1-(2-(6-(3-oxopiperazin-1-yl)pyridin-3-ylamino)pyrimidin-4-yl)piperidine-3-carboxamide]: 1000 to 5000 nM.
